Test results: patent US9085576B2 (AMGEN INC., priority 2013, dated 2015)

Experiments:
[1] = molecular target: Beta Secretase enzyme (BACE) (Homo sapiens (Human), UniProt P56817); assay: In vitro enzymatic BACE FRET assay; format: biochemical; conditions: read-out: BACE1 Enzyme assay IC50
Cathepsin D (Cat D) = Cathepsin D (Cat D) (Homo sapiens (Human), UniProt P07339); assay: In vitro enzymatic Cathepsin D (Cat D) FRET assay; format: biochemical; conditions: read-out: CatD IC50
BACE = BACE (Homo sapiens (Human), UniProt P56817); assay: In vitro BACE cell-based assay (Aβ40 in conditioned medium, sandwich ELISA)
BACE, sequence (P56817 46-501, species assumed): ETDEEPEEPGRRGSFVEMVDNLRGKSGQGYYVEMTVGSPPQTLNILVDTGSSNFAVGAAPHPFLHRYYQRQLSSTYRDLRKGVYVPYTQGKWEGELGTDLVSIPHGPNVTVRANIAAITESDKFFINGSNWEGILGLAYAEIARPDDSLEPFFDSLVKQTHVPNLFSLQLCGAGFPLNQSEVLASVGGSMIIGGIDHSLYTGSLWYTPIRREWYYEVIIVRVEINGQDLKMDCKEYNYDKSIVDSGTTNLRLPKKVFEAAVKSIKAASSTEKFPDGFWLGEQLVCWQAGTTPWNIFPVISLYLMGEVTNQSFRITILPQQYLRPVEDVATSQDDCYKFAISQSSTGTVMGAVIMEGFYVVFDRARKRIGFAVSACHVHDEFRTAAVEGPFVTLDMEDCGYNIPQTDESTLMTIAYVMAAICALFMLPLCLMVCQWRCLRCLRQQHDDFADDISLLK

Beta Secretase enzyme (BACE), sequence (P56817 46-501): as the sequence (P56817 46-501, species assumed) above
Cathepsin D (Cat D), sequence (P07339 65-412, species assumed): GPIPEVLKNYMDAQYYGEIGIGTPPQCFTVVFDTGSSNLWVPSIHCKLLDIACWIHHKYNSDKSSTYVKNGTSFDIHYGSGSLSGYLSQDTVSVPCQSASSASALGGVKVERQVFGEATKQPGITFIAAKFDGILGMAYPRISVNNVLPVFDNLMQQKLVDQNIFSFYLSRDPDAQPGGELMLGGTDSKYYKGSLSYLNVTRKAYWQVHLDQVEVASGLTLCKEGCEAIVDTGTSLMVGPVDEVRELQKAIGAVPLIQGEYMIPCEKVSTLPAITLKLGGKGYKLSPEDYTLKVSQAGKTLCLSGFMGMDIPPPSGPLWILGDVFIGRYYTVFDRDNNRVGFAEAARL

SMILES	IC50 [1] [µM]	IC50 (Cathepsin D (Cat D)) [µM]	IC50 (BACE) [µM]
Cn1cc(C(=O)Nc2ccc(F)c([C@@]3(C(F)F)N=C(N)O[C@@H]4C[C@@H]43)c2)ccc1=O [Example 248, N-(3-((1R,5S,6R)-3-amino-5-(difluoromethyl)-2-oxa-4-azabicyclo[4.1.0]hept-3-en-5-yl)-4-fluorophenyl)-1-methyl-6-oxo-1,6-dihydropyridine-3-carboxamide]	40.5	1230	> 15.6
NC1=N[C@@](c2cc(NC(=O)c3ccc(OCC#CC4CC4)cn3)ccc2F)(C(F)F)[C@H]2C[C@H]2O1 [Example 250, N-(3-((1R,5S,6R)-3-amino-5-(difluoromethyl)-2-oxa-4-azabicyclo[4.1.0]hept-3-en-5-yl)-4-fluorophenyl)-5-((3-cyclopropylprop-2-yn-1-yl)oxy)picolinamide]	0.0218	77.5	0.603
CC(C)(C)OCC(=O)Nc1ccc(F)c([C@@]2(C(F)F)N=C(N)O[C@@H]3C[C@@H]32)c1 [Example 254, N-(3-((1R,5S,6R)-3-amino-5-(difluoromethyl)-2-oxa-4-azabicyclo[4.1.0]hept-3-en-5-yl)-4-fluorophenyl)-2-(tert-butoxy)acetamide]	> 40	2560	> 15.6
COCCOCC(=O)Nc1ccc(F)c([C@@]2(C(F)F)N=C(N)O[C@@H]3C[C@@H]32)c1 [Example 255, N-(3-((1R,5S,6R)-3-amino-5-(difluoromethyl)-2-oxa-4-azabicyclo[4.1.0]hept-3-en-5-yl)-4-fluorophenyl)-2-(2-methoxyethoxy) acetamide]	> 40	666	> 15.6
NC1=N[C@@](c2cc(NC(=O)C3CC(=O)C3)ccc2F)(C(F)F)[C@H]2C[C@H]2O1 [Example 258, N-(3-((1R,5S,6R)-3-amino-5-(difluoromethyl)-2-oxa-4-azabicyclo[4.1.0]hept-3-en-5-yl)-4-fluorophenyl)-3-oxocyclobutane-carboxamide]	20.1	117	2.6
NC1=N[C@@](c2cc(NC(=O)c3cnc(Cl)cn3)ccc2F)(C(F)F)[C@H]2C[C@H]2O1 [Example 261, N-(3-((1R,5S,6R)-3-amino-5-(difluoromethyl)-2-oxa-4-azabicyclo[4.1.0]hept-3-en-5-yl)-4-fluorophenyl)-5-chloropyrazine-2-carboxamide]	0.037	444	1.59
NC1=N[C@@](c2cc(NC(=O)C#Cc3ccccc3)ccc2F)(C(F)F)[C@H]2C[C@H]2O1 [Example 262, N-(3-((1R,5S,6R)-3-amino-5-(difluoromethyl)-2-oxa-4-azabicyclo[4.1.0]hept-3-en-5-yl)-4-fluorophenyl)-3-phenylpropiolamide]	0.245	204	0.144
NC1=N[C@](c2cccc(NC(=O)c3ccc(Cl)cn3)c2)(C(F)F)[C@@H]2C[C@@H]2O1 [Example 264, N-(3-((1 S,5R,6S)-3-amino-5-(difluoromethyl)-2-oxa-4-azabicyclo[4.1.0]hept-3-en-5-yl)phenyl)-5-chloropicolinamide]	35.9	> 400	> 15.6
Cc1cnc(C(=O)Nc2ccc(F)c([C@@]3(C(F)F)N=C(N)O[C@@H]4C[C@@H]43)c2)cn1 [Example 266, N-(3-((1R,5S,6R)-3-amino-5-(difluoromethyl)-2-oxa-4-azabicyclo[4.1.0]hept-3-en-5-yl)-4-fluorophenyl)-5-methylpyrazine-2-carboxamide]	0.817	1160	0.776
NC1=N[C@](CF)(c2cc(NC(=O)c3ccc(Cl)cn3)ccc2Cl)[C@H]2C[C@H]2O1 [Example 270, N-(3-((1R,5S,6R)-3-amino-5-(fluoromethyl)-2-oxa-4-azabicyclo[4.1.0]hept-3-en-5-yl)-4-chlorophenyl)-5-chloropicolinamide]	0.0669	646	0.0122
COc1cnc(C(=O)Nc2ccc(Cl)c([C@]3(CF)N=C(N)O[C@H]4C[C@H]43)c2)cn1 [Example 273]	36.3	1970	2.66
NC1=N[C@@](CF)(c2cc(NC(=O)c3ccc(Br)cn3)ccc2Cl)[C@@H]2C[C@@H]2O1 [Example 275, N-(3-((1S,5R,6S)-3-amino-5-(fluoromethyl)-2-oxa-4-azabicyclo[4.1.0]hept-3-en-5-yl)-4-chlorophenyl)-5-bromopicolinamide]	3.6	1130	0.906
N#Cc1ccc(C(=O)Nc2ccc(Cl)c([C@]3(CF)N=C(N)O[C@H]4C[C@H]43)c2)nc1 [Example 278, N-(3-((1 S,5R,6S)-3-amino-5-(fluoromethyl)-2-oxa-4-azabicyclo[4.1.0]hept-3-en-5-yl)-4-chlorophenyl)-5-cyanopicolinamide]	9.51	904	2.64
C#CCOc1cnc(C(=O)Nc2ccc(Cl)c([C@]3(CF)N=C(N)O[C@H]4C[C@H]43)c2)cn1 [Example 280, N-(3-((1S,5R,6S)-3-amino-5-(fluoromethyl)-2-oxa-4-azabicyclo[4.1.0]hept-3-en-5-yl)-4-chlorophenyl)-5-(prop-2-yn-1-yloxy)pyrazine-2-carboxamide]	4.78	1470	2.89

Other lines, results leading:

IC50 [1] [µM]	IC50 (Cathepsin D (Cat D)) [µM]	IC50 (BACE) [µM]	SMILES
> 40	447	> 15.6	NC1=N[C@@](c2cc(NC(=O)C3(c4ccc(Cl)cc4)CC3)ccc2F)(C(F)F)[C@H]2C[C@H]2O1 [Example 245, N-(3-((1R,5S,6R)-3-amino-5-(difluoromethyl)-2-oxa-4-azabicyclo[4.1.0]hept-3-en-5-yl)-4-fluorophenyl)-1-(4-chlorophenyl) cyclopropanecarboxamide]
> 40	324	> 15.6	NC1=N[C@@](c2cc(NC(=O)C3(c4ccc(Cl)cc4)CCC3)ccc2F)(C(F)F)[C@H]2C[C@H]2O1 [Example 246, N-(3-((1R,5S,6R)-3-amino-5-(difluoromethyl)-2-oxa-4-azabicyclo[4.1.0]hept-3-en-5-yl)-4-fluorophenyl)-1-(4-chlorophenyl) cyclobutanecarboxamide]
25.5	486	4.34	COCCC(=O)Nc1ccc(F)c([C@@]2(C(F)F)N=C(N)O[C@@H]3C[C@@H]32)c1 [Example 247, N-(3-((1R,5S,6R)-3-amino-5-(difluoromethyl)-2-oxa-4-azabicyclo[4.1.0]hept-3-en-5-yl)-4-fluorophenyl)-3-methoxypropanamide]
> 40	1590	> 15.6	Cn1ccc(C(=O)Nc2ccc(F)c([C@@]3(C(F)F)N=C(N)O[C@@H]4C[C@@H]43)c2)cc1=O [Example 249, N-(3-((1R,5S,6R)-3-amino-5-(difluoromethyl)-2-oxa-4-azabicyclo[4.1.0]hept-3-en-5-yl)-4-fluorophenyl)-1-methyl-2-oxo-1,2-dihydropyridine-4-carboxamide]
4.7	190	2	NC1=N[C@@](c2cc(NC(=O)CC(F)(F)F)ccc2F)(C(F)F)[C@H]2C[C@H]2O1 [Example 251, N-(3-((1R,5S,6R)-3-amino-5-(difluoromethyl)-2-oxa-4-azabicyclo[4.1.0]hept-3-en-5-yl)-4-fluorophenyl)-3,3,3-trifluoropropanamide]
6.66	331	2.18	NC1=N[C@@](c2cc(NC(=O)COc3ccccc3)ccc2F)(C(F)F)[C@H]2C[C@H]2O1 [Example 256, N-(3-((1R,5S,6R)-3-amino-5-(difluoromethyl)-2-oxa-4-azabicyclo[4.1.0]hept-3-en-5-yl)-4-fluorophenyl)-2-phenoxyacetamide]
5.17	104	3.19	NC1=N[C@@](c2cc(NC(=O)C3CC3)ccc2F)(C(F)F)[C@H]2C[C@H]2O1 [Example 260, N-(3-((1R,5S,6R)-3-amino-5-(difluoromethyl)-2-oxa-4-azabicyclo[4.1.0]hept-3-en-5-yl)-4-fluorophenyl) cyclopropanecarboxamide]
0.143	1730	0.0274	COc1cnc(C(=O)Nc2ccc(Cl)c([C@@]3(CF)N=C(N)O[C@@H]4C[C@@H]43)c2)cn1 [Example 272]
0.0322	538	0.012	NC1=N[C@](CF)(c2cc(NC(=O)c3ccc(Br)cn3)ccc2Cl)[C@H]2C[C@H]2O1 [Example 274, N-(3-((1R,5S,6R)-3-amino-5-(fluoromethyl)-2-oxa-4-azabicyclo[4.1.0]hept-3-en-5-yl)-4-chlorophenyl)-5-bromopicolinamide]
0.0568	1560	0.0192	N#Cc1ccc(C(=O)Nc2ccc(Cl)c([C@@]3(CF)N=C(N)O[C@@H]4C[C@@H]43)c2)nc1 [Example 277, N-(3-((1R,5S,6R)-3-amino-5-(fluoromethyl)-2-oxa-4-azabicyclo[4.1.0]hept-3-en-5-yl)-4-chlorophenyl)-5-cyanopicolinamide]
0.0056	124	0.0086	C#CCOc1cnc(C(=O)Nc2ccc(Cl)c([C@@]3(CF)N=C(N)O[C@@H]4C[C@@H]43)c2)cn1 [Example 279, N-(3-((1R,5S,6R)-3-amino-5-(fluoromethyl)-2-oxa-4-azabicyclo[4.1.0]hept-3-en-5-yl)-4-chlorophenyl)-5-(prop-2-yn-1-yloxy)pyrazine-2-carboxamide]
0.196	650	0.0243	COc1ccc(C(=O)Nc2ccc(Cl)c([C@@]3(CF)N=C(N)O[C@@H]4C[C@@H]43)c2)nc1 [Example 282, N-(3-((1R,5S,6R)-3-amino-5-(fluoromethyl)-2-oxa-4-azabicyclo[4.1.0]hept-3-en-5-yl)-4-chlorophenyl)-5-methoxypicolinamide]
